This is an account of results in patent US20240115555A1, “METHODS OF TREATING CANCER USING B-RAF INHIBITORS AND IMMUNE CHECKPOINT INHIBITORS” (Genentech, Inc., priority 2015, published 2024).

The conditions of data set [1]: fumarate salt; cited from earlier work.
Another data set relates to CD8+ T-cells. Description: Tissue samples stained for CD8+ T-cells. It is filed as in vivo, human. The note with it: patient tissue samples, data not shown. The source says: (§1) Tissue samples were stained for CD8+ T-cells as well as PD-L1 expression. Treatment with vemurafenib alone increased immune tumor CD8+ T-cell infiltration (data not shown). Treatment with either vemurafenib alone or vemurafenib in combination with atezolizumab increased expression of PD-L1 on tumor cells as well as tumor-infiltrating immune cells (data not shown).

Data set [2] has as its system metastatic melanoma with the BRAFV600E mutation. The note with it: cited from earlier work.
A further data set deals with PD-L1. The experiment in a line: Tissue samples stained for PD-L1 expression. Particulars: patient tissue samples, data not shown. It is filed as in vivo, human.
From the text: as §1

Data set [3] deals with unresectable or metastatic melanoma. The note with it: two Phase III studies; cited from earlier work.

For the compound `O=C(c1ccc(F)c(F)c1Nc1ccc(I)cc1F)N1CC(O)([C@@H]2CCCCN2)C1` [Cobimetinib, (S)-(3,4-difluoro-2-(2-fluoro-4-iodophenylamino)phenyl)(3-hydroxy-3-(piperidin-2-yl)azetidin-1-yl)methanone], the solubility result in data set [1] is on record as “pH dependent solubility”.
As to `CCCS(=O)(=O)Nc1ccc(F)c(C(=O)c2c[nH]c3ncc(-c4ccc(Cl)cc4)cc23)c1F` [vemurafenib, propane-1-sulfonic acid {3-[5-(4-chlorophenyl)-1H-pyrrolo[2,3-b]pyridine-3-carbonyl]-2,4-difluoro-phenyl}-amide], the “immune tumor CD8+ T-cell infiltration” value with CD8+ T-cells was “increased”. In data set [2] (compared with dacarbazine), the “improvement in PFS” value was 74% and the “reduction in the risk of death” value was 63%. Also, the “hazard ratio for death” value in data set [2] (in favor of vemurafenib vs dacarbazine, median follow-up of 12.5 months) was 0.70 (95% CI: 0.57, 0.87). Moreover, the “median OS” value in data set [2] (median follow-up of 12.5 months) was 13.6 months. In addition, the Response rates in data set [2] (previously untreated, BRAFV600E mutation) was 48%. For the same compound, the “improvement in median OS” value in data set [2] (vs dacarbazine, median follow-up of 12.5 months) is recorded as about 4 month. Moreover, in the data set on PD-L1, the “expression of PD-L1 on tumor cells as well as tumor-infiltrating immune cells” value is reported as “increased”.
Turning to “Ipilimumab: humanized immunoglobulin (Ig)G1 monoclonal antibody that blocks cytotoxic T-lymphocyte-associated antigen 4 (CTLA-4)”, in data set [3], the “median PFS” value is reported as 2.8 months and the overall response rate is given as 10.9%.
